{
  "source": "patent EP0058015A2",
  "about": "“Treatment of infections” (BEECHAM GROUP PLC, priority 1981, dated 1982)",
  "key": {"S. aureus": {"tested_on": "S. aureus", "test": "Experimental mouse mastitis: intramammary antibiotic therapy 4 h after S. aureus inoculation, viable bacterial count per gland 18 h later", "assay_type": "in vivo", "details": "for 22 h bacterial counts (log10 cfu/gland) (18 h after treatment), x̄: group mean of five mice; for 22 h bacterial counts (log10 cfu/gland) (18 h after treatment): individual mice, intramammary, 4 h after infection", "protocol": "Lactating mice of the Compton white strain were used 4-7 days after parturition. The mice were anaesthetised with ether and c.10^6 cfu S. aureus were inoculated via the teat into the fourth mammary gland on each side (R4 and L4) by the method described by Anderson [Zentralblatt fur Bakteriologie, Parasitenkunde, Infektionskrankheiten und Hygiene (Abteilung 1) Suppl. 5 783-790].\n4 Hours later, the mice were divided into four groups and each group received inoculations into R4 and L4 of either cloxacillin, rifampicin, cloxacillin and rifampicin, or saline. After a further 18 hours, the mice were killed. From each mouse, L4 was removed and homogenised in a Griffith's tube with 5 ml sterile saline, and a total viable bacterial count was determined using ox blood agar plates pretreated with S-lactamase.\nThe log10 bacterial viable counts per gland found after antibiotic (or saline) therapy in each experiment were examined by analysis of variance. Differences between each pair of treatments were then compared for significance in Student's 't' tests, using the value of the.mean square for error obtained in the analysis of variance. Antibiotic residues. Each gland homogenate was also assayed for antibiotic content using an agar well diffusion method with penassay seed agar (Antibiotic medium 1, Difco Labs., Detroit) and Sarcina lutea as the test organism.\nSimilar treatment to that described above was carried out on mice, in which cloxacillin was replaced by flucloxacillin.\nAntibiotics inoculated into mammary glands 4 h after infection at a dose of 1 mg cloxacillin or […] rifampici per gland, or both."}, "[1]": {"tested_on": "staphylococcal mastitis infections", "test": "Bovine mastitis: intramammary infusion in lactating cows, clinical and bacteriological response at 4 and 7 days after treatment", "assay_type": "in vivo, staphylococci", "protocol": "Twenty one staphylococcal mastitis infections were treated as follows:\nTen infections treated with 3 x 12 hr infusions of a combination of 300 mg Rifampicin and 200 mg Cloxacillin.\nEleven infections treated with 3 x 12 hr infusions of 200 mg Cloxacillin.\nThe treatment was carried out by intramammary infusion in lactating cows, and the clinical and bacteriological response recorded at 4 and 7 days after treatment."}, "bovine mastitis": {"tested_on": "bovine mastitis", "details": "recent reports (Poutrel 1978; Postle et al. 1979); cited from earlier work"}, "[2]": {"details": "lactating cows, 3 x 12 hr infusions of 300 mg Rifampicin and 200 mg Cloxacillin, or of 200 mg Cloxacillin"}},
  "note": "“And” between values parts separate entries of the source, which are not always exact repeats. Identical values can stand only once.",
  "data": [
    {"compound": "Cc1onc(-c2ccccc2Cl)c1C(=O)N[C@@H]1C(=O)N2[C@@H]1SC(C)(C)[C@@H]2C(=O)O", "note": "[Cloxacillin, cloxacillin]", "values": [
      {"measurement": "mean viable bacterial counts per gland, comparison between groups", "setting": "S. aureus; M60 S. aureus, cloxacillin/rifampicin experiment, 1 mg cloxacillin or rifampici per gland, or both, 18 h after therapy, P<0.01", "value": "reduced bacterial counts to a significantly greater extend than rifampicin treatment"},
      {"measurement": "quarters with raised cell counts", "setting": "[1]; four days after treatment, eight out of eleven raised before", "value": "five"},
      {"measurement": "quarters yielding staphylococci", "setting": "[1]; four days after treatment, eleven infections treated", "value": "five"},
      {"measurement": "Proportion of quarters cured four days after treatment", "setting": "[1]; [2]", "value": "6 out of 11"},
      {"measurement": "Proportion of quarters cured seven days after treatment", "setting": "[1]; [2]", "value": "5 out of 11"},
      {"measurement": "quarters yielding staphylococci", "setting": "[1]; seven days after treatment, combination ten quarters, cloxacillin alone eleven", "value": "six"}
    ]},
    {"compound": "Cc1onc(-c2c(F)cccc2Cl)c1C(=O)N[C@@H]1C(=O)N2[C@@H]1SC(C)(C)[C@@H]2C(=O)O", "note": "[Fluclox, flucloxacillin]", "values": [
      {"measurement": "22 h bacterial counts (log10 cfu/gland) (18 h after treatment), x̄", "setting": "S. aureus; Fluclox 1 mg per gland", "value": 4.403, "unit": "log10 cfu/gland"},
      {"measurement": "22 h bacterial counts (log10 cfu/gland) (18 h after treatment)", "setting": "S. aureus; Fluclox 1 mg per gland", "value": "4.243 log10 cfu/gland and 4.796 log10 cfu/gland and 4.158 log10 cfu/gland and 4.340 log10 cfu/gland and 4.477 log10 cfu/gland"}
    ]},
    {"compound": "CO[C@H]1/C=C/O[C@@]2(C)Oc3c(C)c(O)c4c(O)c(c(/C=N/N5CCN(C)CC5)c(O)c4c3C2=O)NC(=O)/C(C)=C\\C=C\\[C@H](C)[C@H](O)[C@@H](C)[C@@H](O)[C@@H](C)[C@H](OC(C)=O)[C@@H]1C", "note": "[Rifampicin, rifampicin]", "values": [
      {"measurement": "22 h bacterial counts (log10 cfu/gland) (18 h after treatment), x̄", "setting": "S. aureus; Rifampicin 25 µg per gland", "value": 4.837, "unit": "log10 cfu/gland"},
      {"measurement": "22 h bacterial counts (log10 cfu/gland) (18 h after treatment)", "setting": "S. aureus; Rifampicin 25 µg per gland", "value": "5.694 log10 cfu/gland and 4.581 log10 cfu/gland and 5.536 log10 cfu/gland and 4.258 log10 cfu/gland and 4.118 log10 cfu/gland"}
    ]},
    {"compound": "CO[C@H]1/C=C/O[C@@]2(C)Oc3c(C)c([O-])c4c(O)c(cc(O)c4c3C2=O)NC(=O)/C(C)=C\\C=C\\[C@H](C)[C@H](O)[C@@H](C)[C@@H](O)[C@@H](C)[C@H](OC(C)=O)[C@@H]1C.[Na+]", "note": "[rifamycin-S.V.]", "values": [
      {"measurement": "effectiveness of therapy in bovine mastitis", "setting": "bovine mastitis", "value": "less effective than penicillin based preparations"}
    ]}
  ]
}
